According to patent US10927104B2, “Ether compounds and uses thereof” (BioTheryX, Inc., priority 2017, dated 2021):

Legend:
Type in all cases: cell-based
IL-1β = assay: PBMC assay, LPS-induced IL-1β (Meso Scale); conditions: Homo sapiens, PBMCs, 100 ng/mL LPS 18-24 hrs; for inhibition at 0.1 µM: compound at 0.1 μM; for inhibition at 1 µM: compound at 1 μM; for inhibition at 10 µM: compound at 10 μM
Procedure: (§1) FIG. 1 represents the activity against IL-1-beta in peripheral blood mononuclear cells (PBMCs), plated in 96 well plates and pretreated with compound for 1 hour and then induced with 100 ng/mL LPS for 18-24 hrs. Cytokines in the media were measured according to MesoScale protocol. Negative control wells were treated with DMSO. Compound activity is measured as a percentage of LPS-induced activity.
(§2) Frozen primary blood mononuclear cells (PBMCs) were purchased from AllCells. Cells were quick thawed, washed once with RPMI-1640/10% FBS.
(§3) 1% Penicillin/1% Streptomycin and plated in 96 well plates at 200,000 cells per well. Cells were pretreated with DMSO only, or Compound 1 for 1 hour and then induced with 100 ng/mL lipopolysaccharide (LPS) for 18-24 hrs. The supernatant was analyzed for IL-1 beta, IL-6, and TNFα, using Meso Scale assay according to manufacturer's protocol. The negative control wells were treated with DMSO.
(§4) Compound activity was measured as fold difference from the DMSO control. IL-1β activity is shown in FIG. 1; IL-6 activity is shown in FIG. 2; TNFα activity is shown in FIG. 3; and IL-2 activity is shown in FIG. 4. Additional data for compounds (shown as percent inhibition) at 10 μM is shown in Table 1; at 1 μM in Table 2; and at 0.1 μM in Table 3.

IL-6 = assay: PBMC assay, LPS-induced IL-6 (Meso Scale); conditions: Homo sapiens, PBMCs, 100 ng/mL LPS 18-24 hrs; for inhibition at 0.1 µM: compound at 0.1 μM; for inhibition at 1 µM: compound at 1 μM; for inhibition at 10 µM: compound at 10 μM
Procedure: as §1, with “FIG. 2” for “FIG. 1”, “against IL-6” for “against IL-1-beta”, “Cytokines” for “Cytokines in the media”, “activity was” for “activity is”
as §2, §3, §4

TNFα = assay: PBMC assay, LPS-induced TNFα (Meso Scale); conditions: Homo sapiens, PBMCs, 100 ng/mL LPS 18-24 hrs; for inhibition at 0.1 µM: compound at 0.1 μM; for inhibition at 1 µM: compound at 1 μM; for inhibition at 10 µM: compound at 10 μM
Procedure: as §1, with “FIG. 3” for “FIG. 1”, “against TNFα” for “against IL-1-beta”, “protocol. The negative” for “protocol. Negative”
as §2, §3, §4

IL-2 = assay: Anti-CD3-induced IL-2 secretion in PBMCs (Mesoscale); conditions: Homo sapiens, PBMC, anti-CD3 stimulated PBMCs, 24 hr, vs DMSO control, read-out: IL-2 Fold Change; for fold induction at 0.1 µM: compound at 0.1 μM; for fold induction at 1 µM: compound at 1 μM
Procedure: FIG. 4 represents Anti-CD3-induced IL-2 secretion in PBMCs. 1 μg/mL anti-CD3 (OKT-3) antibody in PBS coated onto 96-well plates overnight at 4° C. Approximately, 550,000 PBMCs were added to each well, followed by addition of DMSO only (control) or Compound 1. Induction was measured after 24 hrs as fold difference from the DMSO stimulated control.
as §2
For the IL-2 analysis, 96 well plates were precoated with 1 μg/mL anti-human CD3 antibody (OKT3, eBioscience Inc.). After washing with PBS, Compound 1 was added (50 μL/well) followed by PBMCs diluted at 3-4 million cells/mL (150 μL/well). Plates were incubated for 24 hr and the supernatants collected for Mesoscale IL-2 analysis.
as §4

Molm-13 cells = assay: Cell viability assay (CellTiter-Glo), Molm-13 proliferation; conditions: Homo sapiens, MOLM-13, 72 h, 3 days; for inhibition at 10 µM: compound at 10 μM; for inhibition at 1 µM: compound at 1 μM; for inhibition at 0.1 µM: compound at 0.1 μM
Procedure: (§5) Molm-13 and MV-4-11 cells were cultivated in RPMI-1640 (10% FBS/1% pen-strep) and were plated in white walled 96-well plates at 20,000 cells/well.
(§6) Cells were treated with compound at the indicated concentration or DMSO (control) and the cultures were incubated for 3 days at 37° C. and 5% CO2. Following the incubation period, 100 μL of CellTiterGlow (CTG) reagent (CellTiter-Glo® Luminescent Cell Viability Assay, Promega (Madison, Wis.)) was added to each well. Following a 10 min incubation with shaking, luminescence was measured using a Victor Wallac Luminometer.

MV-4-11 cells = assay: Cell viability assay (CellTiter-Glo), MV-4-11 proliferation; conditions: Homo sapiens, MV4-11, 72 h, 3 days; for inhibition at 1 µM: compound at 1 μM; for inhibition at 10 µM: compound at 10 μM
Procedure: as §5, §6

For NCc1cccc(COc2cccc3c2CN([C@H]2CCCC(=O)NC2=O)C3=O)c1 [Compound 9, trifluoroacetic acid], the inhibition at 0.1 µM (IL-1β) was 74%, the inhibition at 0.1 µM (IL-6) was 51% and the inhibition at 0.1 µM (TNFα) was 62%. For the same compound, the fold induction at 0.1 µM (IL-2) was 1.6, the fold induction at 1 µM (IL-2) was 1.6 and the inhibition at 10 µM (Molm-13 cells) was 34%. It also gave an inhibition at 1 µM (MV-4-11 cells) of 2% and an inhibition at 10 µM (MV-4-11 cells) of 10%.

Cc1cnc(Nc2ccc(OCCCNC(=O)NCc3ccc4c(c3OCc3ccc(CN5CCOCC5)cc3)CN([C@H]3CCC(=O)NC3=O)C4=O)cc2)nc1Nc1cccc(S(=O)(=O)NC(C)(C)C)c1 [Compound 23] showed an inhibition at 0.1 µM (IL-1β) of 35%, an inhibition at 1 µM (IL-1β) of 79% and an inhibition at 0.1 µM (IL-6) of 23%. The inhibition at 1 µM (IL-6) was 32%, the inhibition at 0.1 µM (TNFα) was 48% and the inhibition at 1 µM (TNFα) was 88%. For the same compound, the fold induction at 0.1 µM (IL-2) was 0.9, the fold induction at 1 µM (IL-2) was 1.3 and the inhibition at 1 µM (Molm-13 cells) was 30%. For the same compound, the inhibition at 1 µM (MV-4-11 cells) was 8% and the inhibition at 10 µM (MV-4-11 cells) was 79%.

NCc1ccc(COc2cccc3c2CN([C@H]2CCCC(=O)NC2=O)C3=O)cc1 [Compound 5, trifluoroacetic acid] was tested, and the inhibition at 0.1 µM (IL-1β) was 64%, the inhibition at 0.1 µM (IL-6) was 37% and the inhibition at 0.1 µM (TNFα) was 55%. It also gave a fold induction at 0.1 µM (IL-2) of 1.2, a fold induction at 1 µM (IL-2) of 2.1 and an inhibition at 10 µM (Molm-13 cells) of 40%. For the same compound, the inhibition at 1 µM (MV-4-11 cells) was 1% and the inhibition at 10 µM (MV-4-11 cells) was 3%.

With NCc1ccc2c(c1OCc1ccc(CN3CCOCC3)cc1)CN([C@H]1CCCC(=O)NC1=O)C2=O [Compound 22, ditrifluoroacetic acid] the inhibition at 0.1 µM (IL-1β) was 69%, the inhibition at 1 µM (IL-1β) was 74% and the inhibition at 0.1 µM (IL-6) was 23%. The inhibition at 1 µM (IL-6) was 27%, the inhibition at 0.1 µM (TNFα) was 78% and the inhibition at 1 µM (TNFα) was 80%. It also gave a fold induction at 0.1 µM (IL-2) of 2, a fold induction at 1 µM (IL-2) of 2.4 and an inhibition at 0.1 µM (Molm-13 cells) of 31%. The inhibition at 1 µM (Molm-13 cells) was 56%, the inhibition at 1 µM (MV-4-11 cells) was 2% and the inhibition at 10 µM (MV-4-11 cells) was 4%.

In the case of Cc1cnc(Nc2ccc(OCCCNC(=O)NCc3ccc(COc4cc(F)cc5c4CN([C@H]4CCC(=O)NC4=O)C5=O)cc3)cc2)nc1Nc1cccc(S(=O)(=O)NC(C)(C)C)c1 [Compound 18], the inhibition at 1 µM (IL-1β) is reported as 80%, the inhibition at 10 µM (IL-1β) is reported as 83% and the inhibition at 1 µM (IL-6) is reported as 49%. The inhibition at 10 µM (IL-6) was 45%, the inhibition at 1 µM (TNFα) was 83% and the inhibition at 10 µM (TNFα) was 89%. The fold induction at 10 µM (IL-2; compound 10 μM) was 3.3, the fold induction at 1 µM (IL-2) was 3.2 and the inhibition at 10 µM (Molm-13 cells) was 99%. The inhibition at 1 µM (MV-4-11 cells) was 99% and the inhibition at 10 µM (MV-4-11 cells) was 99%.

For O=C1CCC[C@H](N2Cc3c(OCc4ccc(CN5CCOCC5)c(Cl)c4)cccc3C2=O)C(=O)N1 [Compound 3], the inhibition at 0.1 µM (IL-1β) was 91%, the inhibition at 1 µM (IL-1β) was 93% and the inhibition at 10 µM (IL-1β) was 93%. For the same compound, the inhibition at 0.1 µM (IL-6) was 72%, the inhibition at 1 µM (IL-6) was 79% and the inhibition at 10 µM (IL-6) was 77%. The inhibition at 0.1 µM (TNFα) was 91%, the inhibition at 1 µM (TNFα) was 93% and the inhibition at 10 µM (TNFα) was 94%. For the same compound, the fold induction at 0.1 µM (IL-2) was 2, the fold induction at 1 µM (IL-2) was 0.7 and the inhibition at 1 µM (Molm-13 cells) was 1%. For the same compound, the inhibition at 10 µM (Molm-13 cells) was 29%, the inhibition at 1 µM (MV-4-11 cells) was 0% and the inhibition at 10 µM (MV-4-11 cells) was 20%.

Cc1cnc(Nc2ccc(OCCCNC(=O)NCc3ccc4c(c3OCc3ccc(CN5CCOCC5)cc3)CN([C@H]3CCCC(=O)NC3=O)C4=O)cc2)nc1Nc1cccc(S(=O)(=O)NC(C)(C)C)c1 [Compound 27] gave an inhibition at 0.1 µM (IL-1β) of 50%, an inhibition at 1 µM (IL-1β) of 62% and an inhibition at 0.1 µM (IL-6) of 5%. The inhibition at 1 µM (IL-6) was 4%, the inhibition at 0.1 µM (TNFα) was 60% and the inhibition at 1 µM (TNFα) was 72%. It also gave a fold induction at 0.1 µM (IL-2) of 1.3, a fold induction at 1 µM (IL-2) of 1.5 and an inhibition at 1 µM (Molm-13 cells) of 37%. For the same compound, the inhibition at 1 µM (MV-4-11 cells) was 10% and the inhibition at 10 µM (MV-4-11 cells) was 36%.

For O=C1CCC[C@H](N2Cc3c(OCc4ccc(CN5CCOc6ccccc65)cc4)cccc3C2=O)C(=O)N1 [Compound 2, (S)-3-(4-((4-((2,3-dihydro-4H-benzo[b][1,4]oxazin-4-yl)methyl)benzyl)oxy)-1-oxoisoindolin-2-yl)azepane-2,7-dione], the inhibition at 0.1 µM (IL-1β) was 72%, the inhibition at 1 µM (IL-1β) was 86% and the inhibition at 0.1 µM (IL-6) was 43%. It also gave an inhibition at 1 µM (IL-6) of 67%, an inhibition at 0.1 µM (TNFα) of 81% and an inhibition at 1 µM (TNFα) of 90%. The fold induction at 0.1 µM (IL-2) was 1.3, the fold induction at 1 µM (IL-2) was 2.3 and the inhibition at 1 µM (Molm-13 cells) was 5%. For the same compound, the inhibition at 10 µM (Molm-13 cells) was 30%, the inhibition at 1 µM (MV-4-11 cells) was 6% and the inhibition at 10 µM (MV-4-11 cells) was 16%.

Work on O=C1CCC[C@H](N2Cc3c(OCCc4ccc(CN5CCOCC5)cc4)cccc3C2=O)C(=O)N1 [Compound 26, (S)-3-(4-{2-[p-(Morpholinomethyl)phenyl]ethoxy}-2-isoindolinoyl)-2,7-azepanedione] yielded an inhibition at 0.1 µM (IL-1β) of 78%, an inhibition at 1 µM (IL-1β) of 81% and an inhibition at 0.1 µM (IL-6) of 5%. For the same compound, the inhibition at 1 µM (IL-6) was 8%, the inhibition at 0.1 µM (TNFα) was 82% and the inhibition at 1 µM (TNFα) was 87%. For the same compound, the fold induction at 0.1 µM (IL-2) was 2.6, the fold induction at 1 µM (IL-2) was 2.7 and the inhibition at 0.1 µM (Molm-13 cells) was 21%. For the same compound, the inhibition at 1 µM (Molm-13 cells) was 66%, the inhibition at 1 µM (MV-4-11 cells) was 2% and the inhibition at 10 µM (MV-4-11 cells) was 23%.

For Cc1cnc(Nc2ccc(OCCCNCC(=O)NCc3ccc(COc4cccc5c4CN([C@H]4CCCC(=O)NC4=O)C5=O)cc3)cc2)nc1Nc1cccc(S(=O)(=O)NC(C)(C)C)c1 [Compound 6], the inhibition at 0.1 µM (IL-1β) was 68%, the inhibition at 1 µM (IL-1β) was 92% and the inhibition at 0.1 µM (IL-6) was 42%. The inhibition at 1 µM (IL-6) was 76%, the inhibition at 0.1 µM (TNFα) was 62% and the inhibition at 1 µM (TNFα) was 83%. It also gave a fold induction at 0.1 µM (IL-2) of 1, a fold induction at 1 µM (IL-2) of 2.5 and an inhibition at 10 µM (Molm-13 cells) of 91%. It also gave an inhibition at 1 µM (MV-4-11 cells) of 0% and an inhibition at 10 µM (MV-4-11 cells) of 76%.
